Data as given in US6770597B2, “Benzohydrazide derivatives as herbicides and desiccant compositions containing them” (Ishihara Sangyo Kaisha, Ltd., priority 2002, dated 2004).

Key:
Assay type in all cases: in vivo
[1] = test system: field corn (Zea mays L., var. Dekalb 535, CORN); assay: Greenhouse herbicide screen, pre-emerge application, crop damage rating; details: PRE emergent, 14 days after application, rating scale 0-100
Method in brief: (§1)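 Scoring at 14 days used a 0–100 scale, 100 being all plants dead, for weed control and crop injury alike. Rates ranged from 15 to 1000 g ai/ha, applied in acetone at 187 l/ha by track sprayer. Post-emerge treatment hit 2–3 leaf plants; pre-emerge treatment hit soil seeded one day earlier.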

[2] = test system: upland rice (Oryza sp., var.Cocodrie, RICE); assay: as above; details: PRE emergent, 14 days after application, rating scale 0-100
Method in brief: as §1

[3] = test system: field corn (Zea mays L., var. Dekalb 535, CORN); assay: Greenhouse herbicide screen, post-emerge application, crop damage rating; details: POST emergent, 14 days after application, scale 0-100
Method in brief: as §1

[4] = test system: upland rice (Oryza sp., var.Cocodrie, RICE); assay: as above; details: POST emergent, 14 days after application, scale 0-100
Method in brief: as §1

[5] = test system: large crabgrass (Digitaria sanguinalis, DIGSA); assay: Greenhouse herbicide screen, post-emerge application, phytotoxicity rating; details: POST emergent, 14 days after application, scale 0-100
Method in brief: as §1

[6] = test system: lambsquarters (Chenopodium album, CHEAL); assay: as above; details: POST emergent, 14 days after application, scale 0-100
Method in brief: as §1

[7] = test system: cocklebur (Xanthium strumarium, XANST); assay: as above; details: POST emergent, 14 days after application, scale 0-100
Method in brief: as §1

[8] = test system: green foxtail (Setaria viridis, SETVI); assay: as above; details: POST emergent, 14 days after application, scale 0-100
Method in brief: as §1

[9] = test system: redroot pigweed (Amaranthus retrofiexus, AMARE); assay: as above; details: POST emergent, 14 days after application
Method in brief: as §1

[10] = test system: ivyleaf morningglory (Ipomoea hederacea, IPOHE); assay: as above; details: POST emergent, 14 days after application, scale 0-100
Method in brief: as §1

[11] = test system: johnsongrass (Sorghum halepense, SORHA); assay: as above; details: POST emergent, 14 days after application, scale 0-100
Method in brief: as §1

[12] = test system: barnyardgrass (Echinochloa crus-galli, ECHCG); assay: as above; details: POST emergent, 14 days after application, scale 0-100
Method in brief: as §1

[13] = test system: sicklepod (Cassia obtusifolia, CASOB); assay: as above; details: POST emergent, 14 days after application, scale 0-100
Method in brief: as §1

[14] = test system: velvetleaf (Abutilon theophrasti, ABUTH); assay: as above; details: POST emergent, 14 days after application, scale 0-100
Method in brief: as §1

[15] = test system: common ragweed (Ambrosia artemisiifolia L., AMBEL); assay: as above; details: POST emergent, 14 days after application, scale 0-100
Method in brief: as §1

[16] = test system: large crabgrass (Digitaria sanguinalis, DIGSA); assay: Greenhouse herbicide screen, pre-emerge application, phytotoxicity rating; details: PRE emergent, 14 days after application, rating scale 0-100
Method in brief: as §1

[17] = test system: lambsquarters (Chenopodium album, CHEAL); assay: as above; details: PRE emergent, 14 days after application, rating scale 0-100
Method in brief: as §1

[18] = test system: cocklebur (Xanthium strumarium, XANST); assay: as above; details: PRE emergent, 14 days after application, rating scale 0-100
Method in brief: as §1

[19] = test system: green foxtail (Setaria viridis, SETVI); assay: as above; details: PRE emergent, 14 days after application, rating scale 0-100
Method in brief: as §1

[20] = test system: redroot pigweed (Amaranthus retrofiexus, AMARE); assay: as above; details: PRE emergent, 14 days after application, rating scale 0-100
Method in brief: as §1

[21] = test system: ivyleaf morningglory (Ipomoea hederacea, IPOHE); assay: as above; details: PRE emergent, 14 days after application, rating scale 0-100
Method in brief: as §1

[22] = test system: johnsongrass (Sorghum halepense, SORHA); assay: as above; details: PRE emergent, 14 days after application, rating scale 0-100
Method in brief: as §1

[23] = test system: barnyardgrass (Echinochloa crus-galli, ECHCG); assay: as above; details: PRE emergent, 14 days after application, rating scale 0-100
Method in brief: as §1

[24] = test system: sicklepod (Cassia obtusifolia, CASOB); assay: as above; details: PRE emergent, 14 days after application, rating scale 0-100
Method in brief: as §1

[25] = test system: velvetleaf (Abutilon theophrasti, ABUTH); assay: as above; details: PRE emergent, 14 days after application, rating scale 0-100
Method in brief: as §1

[26] = test system: common ragweed (Ambrosia artemisiifolia L., AMBEL); assay: as above; details: PRE emergent, 14 days after application, rating scale 0-100
Method in brief: as §1

Question: For `Cn1c(C(F)(F)F)cc(=O)n(-c2cc(C(=O)NN=C(c3ccccc3)c3ccccc3)c(Cl)cc2F)c1=O` [Compound 6-15], which “crop damage rating CORN” value ([1]; 63 g ai/ha) is on record?
Answer: 0

Question: What about the “crop damage rating CORN” value ([1]; 250 g ai/ha) of the same molecule?
Answer: 0

Question: And the “crop damage rating RICE” value ([2]; 63 g ai/ha)?
Answer: 0

Question: What about the “crop damage rating RICE” value ([2]; 250 g ai/ha) of the same molecule?
Answer: 0

Question: What about the “crop damage rating CORN” value ([3]; 63 g ai/ha) of the same molecule?
Answer: 20

Question: And the “crop damage rating CORN” value ([3]; 250 g ai/ha)?
Answer: 25

Question: And the “crop damage rating RICE” value ([4]; 63 g ai/ha)?
Answer: 0

Question: And the “crop damage rating RICE” value ([4]; 250 g ai/ha)?
Answer: 0

Question: And the “phytotoxicity rating DIGSA” value ([5]; 63 g ai/ha)?
Answer: 20

Question: And the “phytotoxicity rating DIGSA” value ([5]; 250 g ai/ha)?
Answer: 50

Question: And the “phytotoxicity rating CHEAL” value ([6]; 63 g ai/ha)?
Answer: 90

Question: And the “phytotoxicity rating CHEAL” value ([6]; 250 g ai/ha)?
Answer: 90

Question: And the “phytotoxicity rating XANST” value ([7]; 63 g ai/ha)?
Answer: 70

Question: And the “phytotoxicity rating XANST” value ([7]; 250 g ai/ha)?
Answer: 75

Question: And the “phytotoxicity rating SETVI” value ([8]; 63 g ai/ha)?
Answer: 55

Question: What about the “phytotoxicity rating SETVI” value ([8]; 250 g ai/ha) of the same molecule?
Answer: 60

Question: And the “phytotoxicity rating AMARE” value ([9]; 63 g ai/ha, scale 0-100 (0 no damage, 100 complete death))?
Answer: 90

Question: And the “phytotoxicity rating AMARE” value ([9]; 250 g ai/ha, scale 0-100)?
Answer: 90

Question: And the “phytotoxicity rating IPOHE” value ([10]; 63 g ai/ha)?
Answer: 75

Question: And the “phytotoxicity rating IPOHE” value ([10]; 250 g ai/ha)?
Answer: 100

Question: And the “phytotoxicity rating SORHA” value ([11]; 63 g ai/ha)?
Answer: 0

Question: What about the “phytotoxicity rating SORHA” value ([11]; 250 g ai/ha) of the same molecule?
Answer: 15

Question: What about the “phytotoxicity rating ECHCO” value ([12]; 63 g ai/ha) of the same molecule?
Answer: 50

Question: And the “phytotoxicity rating ECHCO” value ([12]; 250 g ai/ha)?
Answer: 65

Question: What about the “phytotoxicity rating CASOB” value ([13]; 63 g ai/ha) of the same molecule?
Answer: 70

Question: And the “phytotoxicity rating CASOB” value ([13]; 250 g ai/ha)?
Answer: 75

Question: And the “phytotoxicity rating ABUTH” value ([14]; 63 g ai/ha)?
Answer: 80

Question: And the “phytotoxicity rating ABUTH” value ([14]; 250 g ai/ha)?
Answer: 98

Question: And the “phytotoxicity rating AMBEL” value ([15]; 63 g ai/ha)?
Answer: 80

Question: What about the “phytotoxicity rating AMBEL” value ([15]; 250 g ai/ha) of the same molecule?
Answer: 80

Question: What about the “phytotoxicity rating DIGSA” value ([16]; 63 g ai/ha) of the same molecule?
Answer: 85

Question: What about the “phytotoxicity rating DIGSA” value ([16]; 250 g ai/ha) of the same molecule?
Answer: 99

Question: What about the “phytotoxicity rating CHEAL” value ([17]; 63 g ai/ha) of the same molecule?
Answer: 100

Question: What about the “phytotoxicity rating CHEAL” value ([17]; 250 g ai/ha) of the same molecule?
Answer: 100

Question: What about the “phytotoxicity rating XANST” value ([18]; 63 g ai/ha) of the same molecule?
Answer: 30

Question: What about the “phytotoxicity rating XANST” value ([18]; 250 g ai/ha) of the same molecule?
Answer: 60

Question: And the “phytotoxicity rating SETVI” value ([19]; 63 g ai/ha)?
Answer: 75

Question: What about the “phytotoxicity rating SETVI” value ([19]; 250 g ai/ha) of the same molecule?
Answer: 98

Question: And the “phytotoxicity rating AMARE” value ([20]; 63 g ai/ha)?
Answer: 100

Question: And the “phytotoxicity rating AMARE” value ([20]; 250 g ai/ha)?
Answer: 100

Question: And the “phytotoxicity rating IPOHE” value ([21]; 63 g ai/ha)?
Answer: 15

Question: And the “phytotoxicity rating IPOHE” value ([21]; 250 g ai/ha)?
Answer: 95

Question: What about the “phytotoxicity rating SORHA” value ([22]; 63 g ai/ha) of the same molecule?
Answer: 40

Question: What about the “phytotoxicity rating SORHA” value ([22]; 250 g ai/ha) of the same molecule?
Answer: 95

Question: And the “phytotoxicity rating ECHCG” value ([23]; 63 g ai/ha)?
Answer: 0

Question: And the “phytotoxicity rating ECHCG” value ([23]; 250 g ai/ha)?
Answer: 35

Question: What about the “phytotoxicity rating CASOB” value ([24]; 63 g ai/ha) of the same molecule?
Answer: 65

Question: And the “phytotoxicity rating CASOB” value ([24]; 250 g ai/ha)?
Answer: 99

Question: What about the “phytotoxicity rating ABUTH” value ([25]; 63 g ai/ha) of the same molecule?
Answer: 100

Question: And the “phytotoxicity rating ABUTH” value ([25]; 250 g ai/ha)?
Answer: 100

Question: What about the “phytotoxicity rating AMBEL” value ([26]; 63 g ai/ha) of the same molecule?
Answer: 70

Question: What about the “phytotoxicity rating AMBEL” value ([26]; 250 g ai/ha) of the same molecule?
Answer: 95
